Legend:
[1] = 101 kPa, Liquid
[2] = xn = mol fraction of the nth substance listed; details: 101 kPa, Liquid, x1 = 1

CCn1cc[n+](C)c1.F[B-](F)(F)F [1-ethyl-3-methylimidazolium tetrafluoroborate]
[1]
Details	mass density [kg/m3]	viscosity [mPa·s]
293.15 K	1340.7	45.29
298.15 K	1336.7	37.19
303.15 K	1332.9	31.36
308.15 K	1329.6	25.56
313.15 K	1325.9	21.54
318.15 K	1322.2	18.84
323.15 K	1319.5	15.9

O [water] + CCn1cc[n+](C)c1.F[B-](F)(F)F
[2]
Details	mass density [kg/m3]	viscosity [mPa·s]
293.15 K	–	1.002
298.15 K	–	0.89
303.15 K	–	0.798
308.15 K	–	0.719
313.15 K	–	0.653
318.15 K	990.1	0.599
323.15 K	988	0.547

Source: the NIST ThermoML archive (doi:10.1021/je030191w)
